Data taken from patent US10570117B2, “Phenylimidazole compound” (Otsuka Pharmaceutical Factory, Inc., priority 2015, dated 2020).
Values after ≈ are worked out from the molar mass of the structure shown. Like-named read-outs stand apart in the source and are kept apart here.

What was measured:
[1] = system: lipoprotein lipase (LPL) gene; assay: LPL mRNA elevating action (RT-PCR quantification of LPL mRNA in C2Cl2 cells); format: cell-based, mouse; conditions: Mus musculus, 24 h, compound 10 μM, ratio relative to the amount of LPL mRNA in cells with DMSO only, read-out: Rate of increase in LPL mRNA
In short: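 Read-out is LPL mRNA relative to vehicle (DMSO = 1), measured by reverse transcription and 20-cycle real-time PCR. Cells were the mouse striated-muscle line C2Cl2, treated 24 h with 10 μM compound in DMEM containing 10% FBS.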

[2] = Solubility in gastric juice or intestinal juice model fluid (precipitation method using DMSO); format: physicochemical; conditions: room temperature
In short: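 Dissolved amount (μg/mL) quantified by UV of filtrate versus pre-made calibration curves. Precipitation approach: DMSO solutions spiked into pH 1.2 (JP 1st fluid) or pH 6.8 (JP 2nd fluid) medium, shaken at room temperature for 24 h before insolubles were filtered off.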

[3] = pH 1.2, simulated gastric fluid, kinetic from dmso stock, 1st fluid for Disintegration Test of Japanese Pharmacopoeia (pH: 1.2), read-out: Solubility (μg/mL) 1st fluid
[4] = pH 6.8, kinetic from dmso stock, 2nd fluid for Disintegration Test of Japanese Pharmacopoeia (pH: 6.8), read-out: Solubility (μg/mL) 2nd fluid

Row | SMILES | solubility at 24 h [2, 3] [µg/mL] | solubility at 24 h [2, 4] [µg/mL] | melting point | fold induction at 10 µM [1]
1 | COc1cc(OCc2ccc(C(F)(F)F)cn2)ccc1-c1c[nH]c(C2CCCCC2)n1 [Example 77] | 8.7 (≈ 20.2 µM) | 1.3 (≈ 3.01 µM) | 226 to 228 °C | 3.11
2 | COc1cc(OCc2ncc(C(F)(F)F)cc2F)ccc1-c1[nH]c(C2CC(F)(F)C2)nc1Cl [Example 353] | 85.4 (≈ 174 µM) | 0.5 (≈ 1.02 µM) | 167 to 169 °C | 4.08
3 | COc1cc(O)ccc1-c1c[nH]c(-c2ccc(F)nc2)n1 [Example 109, 4-[2-(6-fluoropyridin-3-yl)-1H-imidazol-5-yl]-3-methoxyphenol] | > 57 | 40 (≈ 140 µM) | 249 to 251 °C (dec.) | 1.76
4 | COc1cc(OCc2ccc(C(F)(F)F)nc2)ccc1-c1c(C)nc(-c2ccc(Cl)nc2)n1CC1CC1 [Example 155] | > 106 | 3 (≈ 5.67 µM) | 164 to 166 °C | 3.06
5 | COc1cc(OCc2cccc(C#N)n2)ccc1-c1c[nH]c(C2CCCCC2)n1 [Example 55] | > 78 | 2.3 (≈ 5.92 µM) | 182 to 187 °C | 4.24
6 | COc1cc(OCc2ccc(C(F)(F)F)nc2)ccc1-c1cnc(C2CCC(F)(F)CC2)[nH]1 [Example 17] | > 93 | 3 (≈ 6.42 µM) | 62 to 72 °C | 3.2
7 | COc1cc(OCc2ccc(C(F)(F)F)nc2)ccc1-c1[nH]c(C2CCC(F)(F)CC2)nc1C [Example 6] | 91.5 (≈ 190 µM) | 47 (≈ 97.6 µM) | 167 to 169 °C | 4.44
8 | COc1cc(OCc2ccc(S(=O)(=O)OC)cn2)ccc1-c1c[nH]c(-c2ccc(Cl)nc2)n1 [Example 44] | 11.9 (≈ 24.4 µM) | 0.7 (≈ 1.44 µM) | 232 to 235 °C (dec.) | 1.14
9 | COc1cc(OCc2ncc(C(F)(F)F)cc2F)ccc1-c1[nH]c(C2CCC(F)(F)C2)nc1Cl (stereo not shown) [Example 346] | 99.1 (≈ 196 µM) | < 0.4 | 147 to 149 °C | 3.18
10 | COc1cc(-c2[nH]c(C3CCC(F)(F)CC3)nc2Br)ccc1OCc1ncc(C(F)(F)F)cc1F [Example 327] | 110 (≈ 194 µM) | 0.7 (≈ 1.24 µM) | 203 to 204 °C | 3.06
11 | COc1cc(OCc2ccc(C(F)(F)F)cn2)ccc1-c1nc(-c2ccc(Cl)nc2)n(CC2CC2)c1Cl [Example 294] | 104 (≈ 189 µM) | 2.4 (≈ 4.37 µM) | 123 to 126 °C | 2.42
12 | Fc1cc(C(F)(F)F)cnc1COc1ccc(-c2[nH]c(C3CC(F)(F)C3)nc2Cl)cc1 [Example 397] | 15.9 (≈ 34.4 µM) | < 0.3 | 162 to 167 °C | 4.58
13 | COc1cc(-c2c[nH]c(-c3ccc(Cl)nc3)n2)ccc1OCc1cccc(F)n1 [Example 47] | 5.1 (≈ 12.4 µM) | 0.3 (≈ 0.73 µM) | 185 to 187 °C | 3.26
14 | COc1cc(OCc2ccc(C(F)(F)F)nc2)ccc1-c1nc(-c2ccc(Cl)cn2)[nH]c1C [Example 27] | 5.9 (≈ 12.4 µM) | 0.5 (≈ 1.05 µM) | 157 to 159 °C | 2.45
15 | COc1cc(OCc2ncc(C(F)(F)F)cc2F)ccc1-c1[nH]c(C(C)(C)C)nc1Cl [Example 383] | 85.1 (≈ 186 µM) | < 0.3 | 170 to 172 °C | 2.16
16 | COc1cc(OCc2ccc(C(F)(F)F)nc2)ccc1-c1[nH]c(C2CCC(F)(F)CC2)nc1Cl [Example 204] | > 100 | < 8.9 | 122 to 125 °C | 5.07

Continued, in another order:

Row | solubility at 24 h [2, 3] [µg/mL] | solubility at 24 h [2, 4] [µg/mL] | melting point | SMILES | fold induction at 10 µM [1]
17 | 96.3 (≈ 195 µM) | < 0.4 | 158 to 160 °C (dec.) | COc1cc(OCc2ccc(C(F)(F)F)cn2)ccc1-c1nc(-c2ccc(F)nc2)n(C)c1Cl [Example 169, 2-[[4-(5-chloro-2-(6-fluoropyridin-3-yl)-1-methyl-1H-imidazol-4-yl)-3-methoxyphenoxy]methyl]-5-(trifluoromethyl)pyridine] | 3.12
18 | 24.9 (≈ 42.4 µM) | < 0.4 | 204 to 208 °C (dec.) | COc1cc(OCc2ccc(C(F)(F)F)cn2)ccc1-c1[nH]c(-c2ccc(Cl)nc2)nc1I [Example 208] | 4.72
19 | 8.4 (≈ 18.1 µM) | 5.3 (≈ 11.4 µM) | 187 to 190 °C | COc1cc(OCc2ncc(F)cc2F)ccc1-c1[nH]c(-c2ccc(Cl)nc2)nc1Cl [Example 247] | 2.25
20 | 8.8 (≈ 17.9 µM) | < 1.8 | 213 to 215 °C (dec.) | COc1cc(OCc2ccc(C(F)(F)F)nc2)c(C)cc1-c1[nH]c(-c2ccc(F)nc2)nc1Cl [Example 202] | 3.15
21 | 12 (≈ 27 µM) | 2.1 (≈ 4.73 µM) | 187 to 190 °C | COc1cc(OCc2cccnc2C(F)(F)F)ccc1-c1cnc(-c2ccc(F)nc2)[nH]1 [Example 112] | 2.39
22 | 15 (≈ 32.5 µM) | < 0.3 | 220 to 228 °C | COc1cc(OCc2ccncc2C(F)(F)F)ccc1-c1cnc(-c2ccc(Cl)nc2)[nH]1 [Example 100] | 3.05
23 | 87.4 (≈ 197 µM) | < 0.3 | 178 to 180 °C | COc1cc(OCc2cnccc2C(F)(F)F)ccc1-c1cnc(-c2ccc(F)nc2)[nH]1 [Example 131] | 3.66
24 | 94.6 (≈ 199 µM) | 8 (≈ 16.8 µM) | 100 to 105 °C | COc1cc(OCc2ncc(C(F)(F)F)cc2F)ccc1-c1[nH]c(-c2ccc(F)nc2)nc1C [Example 331] | 2.17
25 | 3.1 (≈ 5.84 µM) | 3 (≈ 5.66 µM) | 181 to 182 °C | COc1cc(OCc2ncc(C(F)(F)F)cc2F)ccc1-c1[nH]c(-c2ccc(F)nc2)nc1C(F)(F)F [Example 411, 3-fluoro-2-[[4-(2-(6-fluoropyridin-3-yl)-4-(trifluoromethyl)-1H-imidazol-5-yl)-3-methoxyphenoxy]methyl]-5-(trifluoromethyl)pyridine] | 1.62
26 | 1.6 (≈ 3.07 µM) | < 0.4 | 160 to 163 °C | CCSc1ccc(-c2nc(Cl)c(-c3ccc(OCc4ccc(C(F)(F)F)nc4)cc3OC)[nH]2)cn1 [Example 358] | 4.18
27 | 13.8 (≈ 25 µM) | 6.6 (≈ 12 µM) | 179 to 181 °C | COc1cc(OCc2ncc(Br)cc2F)ccc1-c1[nH]c(-c2ccc(F)nc2)nc1Br [Example 268] | 2.53
28 | 66.5 (≈ 127 µM) | 6.7 (≈ 12.8 µM) | 199 to 203 °C (dec.) | COc1cc(OCc2ccncc2C(F)(F)F)ccc1-c1[nH]c(-c2ccc(F)nc2)nc1Br [Example 276] | 2.36
29 | 1.8 (≈ 3.64 µM) | 2.7 (≈ 5.46 µM) | > 250 °C | COc1cc(OCc2ccc(C(F)(F)F)[n+]([O-])c2)ccc1-c1[nH]c(-c2ccc(F)nc2)nc1Cl [Example 315] | 2.7
30 | 17.7 (≈ 34.9 µM) | 0.4 (≈ 0.788 µM) | 175 to 178 °C | COc1cc(OCc2ncc(Cl)cc2F)ccc1-c1[nH]c(-c2ccc(F)nc2)nc1Br [Example 267] | 2.66
31 | 9.9 (≈ 20.7 µM) | 1.1 (≈ 2.3 µM) | 190 to 193 °C | COc1cc(OCc2ccc(C(F)(F)F)cn2)ccc1-c1nc(-c2ccc(F)nc2)[nH]c1Cl [Example 233] | 3.87
32 | 7.1 (≈ 14.4 µM) | < 1.8 | 170 to 175 °C | COc1cc(OC(C)c2cccc(C(F)(F)F)n2)ccc1-c1[nH]c(-c2ccc(F)nc2)nc1Cl (stereo not shown) [Example 237] | 2.82
33 | 28 (≈ 54.8 µM) | < 0.4 | 113 to 118 °C | COc1cc(-c2[nH]c(-c3ccc(F)nc3)nc2Cl)ccc1OC(C)c1ncc(C(F)(F)F)cc1F (stereo not shown) [Example 396] | 2.93
34 | 4.1 (≈ 8.9 µM) | < 0.3 | 231 to 233 °C | COc1cc(OCc2cccnc2C(F)(F)F)ccc1-c1cnc(-c2ccc(Cl)nc2)[nH]1 [Example 108] | 3.03
35 | 9.1 (≈ 17.4 µM) | < 0.4 | 176 to 179 °C | COc1cc(OCc2cncc(C(F)(F)F)c2)ccc1-c1[nH]c(-c2ccc(F)nc2)nc1Br [Example 270] | 3.81
36 | 96 (≈ 196 µM) | 2.1 (≈ 4.3 µM) | 152 to 154 °C | COc1cc(OCc2ccc(C(F)(F)F)cn2)ccc1-c1c(C)nc(-c2ccc(Cl)nc2)n1C [Example 165] | 3.34
37 | 84.3 (≈ 157 µM) | < 0.4 | 130 to 132 °C | COc1cc(OCc2ccc(C(F)(F)F)cn2)ccc1-c1c(Br)nc(-c2ccc(F)nc2)n1C [Example 303] | 3.29
